# Measurements: patent US5550129A, “Benzopyranones, processes for their preparation and their use” (Willmar Schwabe GmbH & Co., priority 1992, dated 1996)
# Experiments:
# NMDA-induced death [1] = assay: NMDA test (25 mg/kg i.v.), protection against NMDA-induced death; assay type: in vivo, male NMRI mice; conditions: Mus musculus; for ED50: 1 h, oral, one hour before NMDA 25 mg/kg i.v., dose protecting 50% of animals against NMDA-induced death; for responders at 5 mg/kg: 5 mg/kg oral, 1 hr before test, NMDA 25 mg/kg i.v., proportion of surviving animals, read-out: Protective action
# Method: The following method was used to determine the neuroprotective/anticonvulsive activity of the compounds according to the invention of the general formula I: […]
# In order to evaluate the neuroprotective activity, NMDA was administered intravenously in an amount of 25 mg/kg/10 ml to male NMRI mice having a body weight of 20-25 g. As a result of this administration the animals suffered clonic and in some cases also tonic convulsions, leading to death. Prevention of death is used as a criterion of the effectiveness of the investigated compounds.
# All experimental animals had free access to food and water before the experiments. The test and reference substances were administered orally as a suspension in 0.2% agar or water, by means of a pharyngeal probe, in some cases with the aid of solubilizers such as PEG-400. Control animals received the same volume of solvents, if necessary with the addition of solubilizers. One hour after administration of the substance NMDA was administered intravenously and the occurrence of convulsions was observed.
# The results of the tests carried out (NMDA 25 mg i.v.) at doses of 5 mg of the compounds according to the invention per kg body weight compared to known NMDA antagonists are given in Table 1. The percentage proportion of the surviving animals is given as % effect.
# Table 1 also gives as ED-50 values those doses of the substances according to the invention and other NMDA antagonists, which in the NMDA i.v. test (25 mg/kg) one hour after administration protected 50% of the animals against NMDA-induced death.
# The ED-50 values were determined according to the method of Lichtfield and Wilcoxon, J. Pharmacol. exp. Therapeut. 96, 99 (1949), in each case using 4-5 groups of animals each containing 10 animals per dose stage.
# NMDA-induced death [2] = assay: as above; assay type: in vivo, male NMRI mice; conditions: Mus musculus, 1 hr before test, NMDA 25 mg/kg i.v., proportion of surviving animals, read-out: Protective action; for responders at 20 mg/kg: 20 mg/kg oral; for responders at 50 mg/kg: 50 mg/kg oral
Compound,ED50 (NMDA-induced death [1]),responders at 5 mg/kg (NMDA-induced death [1]),responders at 20 mg/kg (NMDA-induced death [2]),responders at 50 mg/kg (NMDA-induced death [2])
"COc1cc(OC)c2c(C)c(CCN3CCN(c4ccccc4)CC3)c(=O)oc2c1 [Example 15, 5,7-dimethoxy-4-methyl-3-[2-(4-phenyl-1-piperazinyl)ethyl]-2H-1-benzopyran-2-one]",1 mg/kg,87.5%,–,–
"COc1cc2oc(=O)c(CCN3CCN(c4ccccc4OC)CC3)c(C)c2cc1O [Example 2, 6-hydroxy-7-methoxy-3-{2-[4-(2-methoxyphenyl)-1-piperazinyl]ethyl}-4-methyl-2H-1-benzopyran-2-one]",0.2 mg/kg,100%,–,–
"CCOc1ccccc1N1CCN(CCc2c(C)c3c(OC)cc(OC)cc3oc2=O)CC1 [Example 20, 3-{2-[4-(2-ethoxyphenyl)-1-piperazinyl]ethyl}-5,7-dimethoxy-4-methyl-2H-1-benzopyran-2-one]",–,100%,–,–
"COCCOC(=O)C1=C(C)NC(C)=C(C(=O)OC(C)C)C1c1cccc([N+](=O)[O-])c1 (stereo not shown) [Nimodipin, reference compound]",18.5 mg/kg,–,87.5%,–
"CCOc1cc2c(C)c(CCN3CCN(c4ccccc4)CC3)c(=O)oc2cc1OC [Example 6, 6-ethoxy-7-methoxy-4-methyl-3-[2-(4-phenyl-1-piperazinyl)ethyl]-2H-1-benzopyran-2-one]",2 mg/kg,87.5%,–,–
"COc1cc2oc(=O)c(CCN3CCN(c4ccccc4OC)CC3)c(C)c2cc1OC [Example 4, 6,7-dimethoxy-3-{2-[4-(2-methoxyphenyl)-1-piperazinyl)ethyl]-4-methyl-2H-1-benzopyran-2-one]",0.4 mg/kg,100%,–,–
"COc1cc2oc(=O)c(CCN3CCN(c4ccccc4OC)CC3)c(C)c2cc1OC(C)C [Example 8, 7-methoxy-3-{2-[4-(2-methoxyphenyl)-1-piperazinyl]ethyl}-4-methyl-6-(1-methylethoxy)-2H-1-benzopyran-2-one]",0.7 mg/kg,100%,–,–
"COc1cc2oc(=O)c(CCN3CCC(c4ccccc4)CC3)c(C)c2c(OC)c1OC [Example 12, 5,6,7-trimethoxy-4-methyl-3-[2-(4-phenyl-1-piperidinyl)ethyl]-2H-1-benzopyran-2-one]",3.4 mg/kg,75%,–,–
"CCOc1cc2c(C)c(CCN3CCC(c4ccccc4)CC3)c(=O)oc2cc1OC [Example 5, 6-ethoxy-7-methoxy-4-methyl-3-[2-(4-phenyl-1-piperidinyl)ethyl]-2H-1-benzopyran-2-one]",4.1 mg/kg,75%,–,–
"CCOc1ccc2c(C)c(CCN3CCN(c4ccccc4OC)CC3)c(=O)oc2c1OCC [Example 11, 7,8-diethoxy-3-{2-[4-(2-methoxyphenyl)-1-piperazinyl]ethyl}-4-methyl-2H-1-benzopyran-2-one]",–,100%,–,–
"COc1ccccc1N1CCN(CCc2c(C)c3c(O)cc(O)cc3oc2=O)CC1 [Example 16, 5,7-dihydroxy-3-{2-[4-(2-methoxyphenyl)-1-piperazinyl]ethyl}-4-methyl-2H-1-benzopyran-2-one]",0.2 mg/kg,100%,–,–
"COc1cc(OC)c2c(C)c(CCN3CCN(c4cccc(C(F)(F)F)c4)CC3)c(=O)oc2c1 [Example 23, 5,7-dimethoxy-4-methyl-3-{2-[4-(3-trifluoromethylphenyl)-1-piperazinyl]ethyl}-2H-1-benzopyran-2-one]",–,25%,–,–
"COc1ccc(CCN(C)CCCC(C#N)(c2ccc(OC)c(OC)c2)C(C)C)cc1OC (stereo not shown) [Verapamil, reference compound]",17.3 mg/kg,–,87.5%,–
"COc1cc(OC)c2c(C)c(CCN3CCN(c4ccccc4O)CC3)c(=O)oc2c1 [Example 25, 3-{2-[4-(2-hydroxyphenyl)-1-piperazinyl]-ethyl}-5,7-dimethoxy-4-methyl-2H-1-benzopyran-2-one]",–,87.5%,–,–
"COc1cc(OC)c2c(C)c(CCN3CCN(c4ccccc4F)CC3)c(=O)oc2c1 [Example 22, 3-{2-[4-(2-fluorophenyl)-1-piperazinyl]ethyl}-5,7-dimethoxy-4-methyl-2H-1-benzopyran-2-one]",–,100%,–,–
"COc1cc(OC)c2c(C)c(CCN3CCC(O)(c4ccccc4)CC3)c(=O)oc2c1 [Example 24, 3-[2-(4-hydroxy-4-phenyl-1-piperidinyl)ethyl]-5,7-dimethoxy-4-methyl-2H-1-benzopyran-2-one]",–,25%,–,–
"COc1cc2oc(=O)c(CCN3CCN(c4ccccc4)CC3)c(C)c2c(OC)c1OC [Example 13, 5,6,7-trimethoxy-4-methyl-3-[2-(4-phenyl-1-piperazinyl)ethyl]-2H-1-benzopyran-2-one]",–,62.5%,–,–
"COc1ccc2c(c1)[C@]13CCCC[C@@H]1[C@H](C2)N(C)CC3 [Dextromethorphan, reference compound]",66.7 mg/kg,–,–,50%
"COc1cc(OC)c2c(C)c(CCN3CCC(c4ccccc4)CC3)c(=O)oc2c1 [Example 14, 5,7-dimethoxy-4-methyl-3-[2-(4-phenyl-1-piperidinyl)ethyl]-2H-1-benzopyran-2-one]",2.2 mg/kg,87.5%,–,–
"COc1ccc2c(C)c(CCN3CCN(c4ccccc4OC)CC3)c(=O)oc2c1 [Example 1, 7-methoxy-3-{2-[4-(2-methoxyphenyl)-1-piperazinyl]ethyl}-4-methyl-2H-1-benzopyran-2-one]",0.8 mg/kg,87.5%,–,–
"CCS(=O)(=O)Oc1cc2c(C)c(CCN3CCN(c4ccccc4OC)CC3)c(=O)oc2cc1OC [Example 9, 6-(ethanesulphonyloxy)-7-methoxy-3-(2-[4-(2-methoxyphenyl)-1-piperazinyl]-ethyl)-4-methyl-2H-1-benzopyran-2-one]",0.6 mg/kg,100%,–,–
CNC1(c2ccccc2Cl)CCCCC1=O (stereo not shown) [Ketamin],–,–,0%,–
"COc1cc(OC)c2c(C)c(CCN3CCN(c4ccccc4OC)CC3)c(=O)oc2c1 [Example 17, 5,7-dimethoxy-3-{2-[4-(2-methoxyphenyl)-1-piperazinyl]ethyl}-4-methyl-2H-1-benzopyran-2-one]",0.2 mg/kg,100%,–,–
"COc1cc(OC)c2c(C)c(CCN3CCN(c4ccccc4C)CC3)c(=O)oc2c1 [Example 21, 5,7-dimethoxy-4-methyl-3-{2-[4-(2-methylphenyl)-1-piperazinyl]ethyl}-2H-1-benzopyran-2-one]",–,87.5%,–,–
"CCOc1cc(OCC)c2c(C)c(CCN3CCN(c4ccccc4OC)CC3)c(=O)oc2c1 [Example 18, 5,7-diethoxy-3-{2-[4-(2-methoxyphenyl)-1-piperazinyl]ethyl}-4-methyl-2H-1-benzopyran-2-one]",0.6 mg/kg,100%,–,–
"COc1cc2oc(=O)c(CCN3CCN(c4ccccc4)CC3)c(C)c2cc1OC [Example 3, 6,7-dimethoxy-4-methyl-3-[2-(4-phenyl-1-piperazinyl)ethyl]-2H-1-benzopyran-2-one]",–,50%,–,–
"COc1ccccc1N1CCN(CCc2c(C)c3ccc(OC)c(OC)c3oc2=O)CC1 [Example 10, 7,8-dimethoxy-3-{2-[4-(2-methoxyphenyl)-1-piperazinyl]ethyl}-4-methyl-2H-1-benzopyran-2-one]",0.4 mg/kg,100%,–,–
"CCCOc1cc(OCCC)c2c(C)c(CCN3CCN(c4ccccc4OC)CC3)c(=O)oc2c1 [Example 19, 3-{2-[4-(2-methoxyphenyl)-1-piperazinyl]ethyl}-4-methyl-5,7-dipropoxy-2H-1-benzopyran-2-one]",–,100%,–,–
"CCOc1cc2c(C)c(CCN3CCN(c4ccccc4OC)CC3)c(=O)oc2cc1OC [Example 7, 6-ethoxy-7-methoxy-3-{2-[4-(2-methoxyphenyl)-1-piperazinyl]ethyl}-4-methyl-2H-1-benzopyran-2-one]",0.4 mg/kg,100%,–,–
"Fc1ccc(C(c2ccc(F)cc2)N2CCN(C/C=C/c3ccccc3)CC2)cc1 [Flunarizin, reference compound]",22.8 mg/kg,–,–,100%
